Where two headings read alike, the source gives them in different places.
Target: human LPAR1 (Homo sapiens, UniProt Q92633)
Assay: In vitro functional assay of lysophosphatidic acid receptor 1 activity (calcium flux)
Type: cell-based
[1] = B103 cells stably expressing human LPAR1, calcium flux (Fluo-4 NW) after lysophosphatidic acid (18:1) at EC80, 100 pM to 10 μM, read-out: LPAR1 IC50

human LPAR1, sequence (Q92633 whole entry): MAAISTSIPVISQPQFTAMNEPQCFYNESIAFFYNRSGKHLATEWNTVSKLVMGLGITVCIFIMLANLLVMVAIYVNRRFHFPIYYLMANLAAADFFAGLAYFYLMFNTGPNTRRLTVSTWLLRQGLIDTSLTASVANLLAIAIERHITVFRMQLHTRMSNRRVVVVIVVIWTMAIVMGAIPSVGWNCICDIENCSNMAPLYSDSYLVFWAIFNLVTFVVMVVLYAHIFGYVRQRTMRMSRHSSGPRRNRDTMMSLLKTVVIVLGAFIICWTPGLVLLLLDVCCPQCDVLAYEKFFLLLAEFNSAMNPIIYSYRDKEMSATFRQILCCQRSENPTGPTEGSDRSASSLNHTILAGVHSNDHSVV

Row | Structure (SMILES) | IC50 [1] | IC50 (LPAR1 IC50)
1 | Cc1cc(OC(F)F)c(NC(=O)N(c2ccccc2C(C)C)[C@H]2CC[C@H](C(=O)O)CC2)cn1 [Example 157, trans-4-(3-(4-(difluoromethoxy)-6-methylpyridin-3-yl)-1-(2-isopropylphenyl)ureido)cyclohexane-1-carboxylic acid] | 10 to 100 nM | 
2 | COc1ccc(NC(=O)N(c2ccccc2C(C)C)[C@@H]2CCC[C@H](C(=O)O)C2)c(OC(F)F)n1 [Example 286] | 10 to 100 nM | 
3 | CC(=O)N[C@H]1CC[C@@H](N(C(=O)Nc2ccc(C)nc2OC(F)F)c2ccccc2C(C)C)CC1 [Example 266, N-((1s,4s)-4-(3-(2-(difluoromethoxy)-6-methylpyridin-3-yl)-1-(2-isopropylphenyl)ureido)cyclohexyl)acetamide] | 100 to 1000 nM | 
4 | COc1ccc(NC(=O)N(c2ccccc2C(C)C)C2CCCN(C)C2=O)c(OC(F)F)n1 (stereo not shown) [Example 45, 3-(2-(difluoromethoxy)-6-methoxypyridin-3-yl)-1-(2-isopropylphenyl)-1-(1-methyl-2-oxopiperidin-3-yl)urea] | 100 to 1000 nM | 
5 | Cc1ccc(NC(=O)N(c2ccccc2C(C)C)C2CN(C(=O)OC(C)(C)C)C2)c(OC(F)F)n1 [Example 2, tert-butyl 3-(3-(2-(difluoromethoxy)-6-methylpyridin-3-yl)-1-(2-isopropylphenyl)ureido)azetidine-1-carboxylate] | 100 to 1000 nM | 
6 | CC(=O)N1CCC(N(C(=O)Nc2cnccn2)c2ccccc2C(C)C)CC1 [Example 130] |  | > 1000 nM
7 | CNC(=O)CC1CC(N(C(=O)Nc2ccc(C)nc2OC(F)F)c2ccccc2C(C)C)C1 (stereo not shown) [Example 190, 2-(3-(3-(2-(difluoromethoxy)-6-methylpyridin-3-yl)-1-(2-isopropylphenyl)ureido)cyclobutyl)-N-methylacetamide] | 100 to 1000 nM | 
8 | Cc1ccc(NC(=O)N(c2ccccc2C(C)C)C2CC2)c(OC(F)F)n1 [Example 13, 1-cyclopropyl-3-(2-(difluoromethoxy)-6-methylpyridin-3-yl)-1-(2-isopropylphenyl)urea] | > 1000 nM | 
9 | Cc1ccc(NC(=O)N(c2ccccc2C(C)C)[C@H]2C[C@@H](C(=O)O)C2)c(OC(F)F)n1 [Example 162, cis-3-(3-(2-(difluoromethoxy)-6-methylpyridin-3-yl)-1-(2-isopropylphenyl)ureido)cyclobutane-1-carboxylic acid] | 100 to 1000 nM | 
10 | [2H]C([2H])([2H])Oc1ccc(NC(=O)N(c2ccccc2C(C([2H])([2H])[2H])C([2H])([2H])[2H])[C@H]2CC[C@H](C(=O)O)CC2)c(OC(F)F)n1 [Example 262] | < 10 nM | 
11 | Cc1ccc(NC(=O)N(c2ccccc2C(C)C)[C@H]2C[C@H](CC(N)=O)C2)c(OC(F)F)n1 [Example 188] | 100 to 1000 nM | 
12 | COc1cc(F)c(Cl)cc1NC(=O)N(c1ccccc1C(C)C)[C@H]1CC[C@H](C(=O)O)CC1 [Example 300, (1r,4r)-4-(3-(5-chloro-4-fluoro-2-methoxyphenyl)-1-(2-isopropylphenyl)ureido)cyclohexane-1-carboxylic acid] | 100 to 1000 nM | 
13 | Cc1ccc(NC(=O)N(c2ccccc2C(C)C)C2CC3(C2)CN(S(C)(=O)=O)C3)c(OC(F)F)n1 [Example 76, 3-(2-(difluoromethoxy)-6-methylpyridin-3-yl)-1-(2-isopropylphenyl)-1-(2-(methylsulfonyl)-2-azaspiro[3.3]heptan-6-yl)urea] | 100 to 1000 nM | 
14 | Cc1ccc(NC(=O)N(c2ccccc2C(C)C)C2CN(S(N)(=O)=O)C2)c(OC(F)F)n1 [Example 127, 3-(3-(2-(difluoromethoxy)-6-methylpyridin-3-yl)-1-(2-isopropylphenyl)ureido)azetidine-1-sulfonamide] | 10 to 100 nM | 
15 | COC[C@H](C)Oc1nc(OC)ccc1NC(=O)N(c1ccccc1C(C)C)[C@H]1CC[C@H](C(=O)O)CC1 [Example 339, trans-4-(1-(2-isopropylphenyl)-3-(6-methoxy-2-(((S)-1-methoxypropan-2-yl)oxy)pyridin-3-yl)ureido)cyclohexane-1-carboxylic acid] | 10 to 100 nM | 
16 | CCOC(=O)N1CC(N(C(=O)Nc2ccc(C)nc2OC(F)F)c2ccccc2C(C)C)C1 [Example 78, ethyl 3-(3-(2-(difluoromethoxy)-6-methylpyridin-3-yl)-1-(2-isopropylphenyl)ureido)azetidine-1-carboxylate] | 10 to 100 nM | 
17 | Cc1ccc(NC(=O)N(c2ccccc2C(C)C)[C@H]2CC[C@@H](c3cccnc3)CC2)c(OC(F)F)n1 [Example 260, 3-(2-(difluoromethoxy)-6-methylpyridin-3-yl)-1-(2-isopropylphenyl)-1-((1s,4s)-4-(pyridin-3-yl)cyclohexyl)urea] | > 1000 nM | 
18 | Cc1ccc(NC(=O)N(C[C@H]2CCN2C(=O)OC(C)(C)C)c2ccccc2C(C)C)c(OC(F)F)n1 [Example 11, tert-butyl (R)-2-((3-(2-(difluoromethoxy)-6-methylpyridin-3-yl)-1-(2-isopropylphenyl)ureido)methyl)azetidine-1-carboxylate] | > 1000 nM | 
19 | COc1nc(C#N)ccc1NC(=O)N(c1ccccc1C(C)C)C1CCN(C(C)=O)CC1 [Example 185, 1-(1-acetylpiperidin-4-yl)-3-(6-cyano-2-methoxypyridin-3-yl)-1-(2-isopropylphenyl)urea] |  | 100 to 1000 nM
20 | Cc1ccc(NC(=O)N(c2ccccc2C(C)C)[C@H]2CCC(=O)N(C)C2)c(OC(F)F)n1 [Example 6, (S)-3-(2-(difluoromethoxy)-6-methylpyridin-3-yl)-1-(2-isopropylphenyl)-1-(1-methyl-6-oxopiperidin-3-yl)urea] | 10 to 100 nM | 

Row | Structure (SMILES) | IC50 [1] | IC50 (LPAR1 IC50)
21 | CC(C)c1ccccc1N(C(=O)Nc1ccc(Cl)cn1)[C@H]1CC[C@H](C(=O)O)CC1 [Example 297, (1r,4r)-4-(3-(5-chloropyridin-2-yl)-1-(2-isopropylphenyl)ureido)cyclohexane-1-carboxylic acid] | 10 to 100 nM | 
22 | Cc1ccc(NC(=O)N(c2ccccc2C(C)C)[C@H]2CC[C@](O)(C(F)(F)C(=O)O)CC2)c(OC(F)F)n1 [Example 326] | < 10 nM | 
23 | Cc1ccc(NC(=O)N(c2ccccc2C(C)C)[C@H]2CC[C@@H](C(F)F)CC2)c(OC(F)F)n1 [Example 245, 3-(2-(difluoromethoxy)-6-methylpyridin-3-yl)-1-((1s,4s)-4-(difluoromethyl)cyclohexyl)-1-(2-isopropylphenyl)urea] | > 1000 nM | 
24 | COc1ccc(NC(=O)N(c2ccccc2C(C)C)C2CCN(C(C)=O)CC2)c(OCC(F)F)n1 [Example 106] |  | 10 to 100 nM
25 | COc1ccc(NC(=O)N(c2ccccc2C(C)C)[C@H]2CCN(C3COC3)C2)c(OC(F)F)n1 [Example 38, (S)-3-(2-(difluoromethoxy)-6-methoxypyridin-3-yl)-1-(2-isopropylphenyl)-1-(1-(oxetan-3-yl)pyrrolidin-3-yl)urea] | 100 to 1000 nM | 
26 | COc1ccc(NC(=O)N(c2ccccc2C(C)C)[C@H]2CCN(C(C)=O)C[C@H]2F)c(OC(F)F)n1 (racemic) [Example 47, rac-1-((3R,4S)-1-acetyl-3-fluoropiperidin-4-yl)-3-(2-(difluoromethoxy)-6-methoxypyridin-3-yl)-1-(2-isopropylphenyl)urea] |  | 10 to 100 nM
27 | CC(=O)N1CCC(N(C(=O)Nc2cnc(C)cn2)c2ccccc2C(C)C)CC1 [Example 131] |  | 100 to 1000 nM
28 | COC(=O)C1CC(CN(C(=O)Nc2ccc(C)nc2OC(F)F)c2ccccc2C(C)C)C1 (stereo not shown) [Example 169] | 10 to 100 nM | 
29 | Cc1ccc(NC(=O)N(c2ccccc2C(C)C)C2CCN(C(=O)OC(C)(C)C)CC2)c(OC(F)F)n1 [Example 1, tert-butyl 4-(3-(2-(difluoromethoxy)-6-methylpyridin-3-yl)-1-(2-isopropylphenyl)ureido)piperidine-1-carboxylate] |  | 100 to 1000 nM
30 | COc1ccc(NC(=O)N(c2ccccc2C(C)C)C23CCN(C(C)=O)CC2C3)c(OC(F)F)n1 (stereo not shown) [Example 61, 1-(3-acetyl-3-azabicyclo[4.1.0]heptan-6-yl)-3-(2-(difluoromethoxy)-6-methoxypyridin-3-yl)-1-(2-isopropylphenyl)urea] |  | 10 to 100 nM
31 | CC(=O)N1CCC(N(C(=O)Nc2ccc(C)nc2OC(F)F)c2cccnc2C(C)C)CC1 [Example 31, 1-(1-acetylpiperidin-4-yl)-3-(2-(difluoromethoxy)-6-methylpyridin-3-yl)-1-(2-isopropylpyridin-3-yl)urea] |  | 100 to 1000 nM
32 | Cc1ccc(NC(=O)N(c2ccccc2C(C)C)C2CC(O)(C(F)(F)F)C2)c(OC(F)F)n1 (stereo not shown) [Example 196, 3-(2-(difluoromethoxy)-6-methylpyridin-3-yl)-1-(3-hydroxy-3-(trifluoromethyl)cyclobutyl)-1-(2-isopropylphenyl)urea] | > 1000 nM | 
33 | CC(=O)N1CCC(N(C(=O)Nc2ncc(Br)cc2OC(F)F)c2ncccc2C(C)C)CC1 [Example 142] |  | > 1000 nM
34 | Cc1ccc(NC(=O)N(c2ccccc2C(C)C)[C@H]2CC[C@H](C(=O)O)CC2)c(OCCF)n1 [Example 338, (1r,4r)-4-(3-(2-(2-fluoroethoxy)-6-methylpyridin-3-yl)-1-(2-isopropylphenyl)ureido)cyclohexane-1-carboxylic acid] | 10 to 100 nM | 
35 | Cc1ccc(NC(=O)N(c2ccccc2C(C)C)[C@H]2CC[C@H](c3nnn[nH]3)CC2)c(OC(F)F)n1 [Example 248] | 100 to 1000 nM | 
36 | Cc1ccc(NC(=O)N(c2ccccc2C(C)C)C2CC(NS(C)(=O)=O)C2)c(OC(F)F)n1 (stereo not shown) [Example 272, N-(3-(3-(2-(difluoromethoxy)-6-methylpyridin-3-yl)-1-(2-isopropylphenyl)ureido)cyclobutyl)methanesulfonamide] | 10 to 100 nM | 
37 | COc1ccc(NC(=O)N(c2ccccc2C(C)C)C2CCN(C(N)=O)CC2)c(OC(F)F)n1 [Example 65, 4-(3-(2-(difluoromethoxy)-6-methoxypyridin-3-yl)-1-(2-isopropylphenyl)ureido)piperidine-1-carboxamide] |  | 10 to 100 nM
38 | Cc1ccc(NC(=O)N(c2ccccc2C(C)C)[C@H]2C[C@H](O)C2)c(OC(F)F)n1 [Example 181] | 10 to 100 nM | 
39 | Cc1ccc(NC(=O)N(c2ccccc2C(C)C)[C@@H]2CC[C@@H](C(=O)O)C2)c(OC(F)F)n1 [Example 303] | < 10 nM | 
40 | COc1ccc(NC(=O)N(c2ccccc2C(C)C)[C@H]2CC[C@H](OC)CC2)c(OC(F)F)n1 [Example 40, 3-(2-(difluoromethoxy)-6-methoxypyridin-3-yl)-1-(2-isopropylphenyl)-1-((1r,4r)-4-methoxycyclohexyl)urea] | 10 to 100 nM | 
